Results published in patent US12637427B2, “ALDH-2 inhibitor compounds and methods of use” (Amygdala Neurosciences, Inc., priority 2022, dated 2026).

What was measured:
[1] = O'Malley et al. 2021; cited from earlier work
recombinant human ALDH-1 = biological target: T1, recombinant human ALDH-1 (Homo sapiens, UniProt P00352); test: ALDH-1 inhibition assay; format: biochemical; details: 60 min pre-incubation; 10 μM = highest concentration tested; read-out: Enzymatic Assays IC50 ALDH-1
T1 sequence (P00352 1-501): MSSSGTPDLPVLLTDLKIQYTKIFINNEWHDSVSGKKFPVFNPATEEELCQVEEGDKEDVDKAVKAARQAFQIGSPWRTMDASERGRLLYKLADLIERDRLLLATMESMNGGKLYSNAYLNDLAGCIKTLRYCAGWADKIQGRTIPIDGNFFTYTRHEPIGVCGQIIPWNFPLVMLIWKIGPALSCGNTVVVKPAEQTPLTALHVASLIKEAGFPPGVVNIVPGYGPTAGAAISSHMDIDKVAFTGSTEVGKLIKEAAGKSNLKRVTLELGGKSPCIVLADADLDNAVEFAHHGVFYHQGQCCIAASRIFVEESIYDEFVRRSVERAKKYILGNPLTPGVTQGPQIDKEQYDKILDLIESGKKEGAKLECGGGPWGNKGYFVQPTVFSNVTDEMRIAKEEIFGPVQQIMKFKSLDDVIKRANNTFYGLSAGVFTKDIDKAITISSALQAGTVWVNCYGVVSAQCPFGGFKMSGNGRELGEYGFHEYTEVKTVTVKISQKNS
Description: B. ALDH-1 inhibition assay: The ALDH-1 reaction mixture used in the assay contained 100 μM formaldehyde, 2.5 mM NAD+, 20 mM NaCl, 10 mM MgCl2, 1 mM dithiothreitol (DTT; reducing agent), and 50 nM recombinant human ALDH-1 in 50 mM Hepes buffer, pH 7.5 in a final volume of 10 μL using 384-well Corning 3820 plates. After 60 min of pre-incubation of the test ALDH-2 inhibitor compound with ALDH-1, the reaction was started by adding NAD+ and formaldehyde and the assay reaction mixture was allowed to proceed for 60 minutes. Activity of the ALDH-1 enzyme was determined by monitoring NADH formation using Perkin-Elmer Envision Reader with excitation and emission wavelengths set at 340 and 460 nm, respectively.

HepaRG spheroids = test: HepaRG 3D spheroid assay; format: cell-based; details: minimum effective concentration crossing vehicle control threshold of cell health marker; 100 μM = highest concentration tested
From the text: See e.g., Walker et al., “The evolution of strategies to minimise the risk of human drug-induced liver injury (DILI) in drug discovery and development,” (2020) Archives of Toxicology, Vol. 94: 2559-2585, which is hereby incorporated by reference herein in its entirety. […] In applying the HepaRG spheroid assay analysis to determining the hepatoxic liability of ALDH-2 inhibitor compounds, consideration is made of the binding to plasma protein and the limitations to CNS penetration due to the blood-brain barrier.
E. HepaRG® 3D spheroid assay: The HepaRG 3D spheroid assay is described in Walker et al., “The evolution of strategies to minimise the risk of human drug-induced liver injury (DILI) in drug discovery and development,” (2020) Archives of Toxicology, Vol. 94: 2559-2585. Briefly, HepaRG® cells were seeded into ultra-low adhesion 96-well black walled clear bottomed spheroid microplates. […] At the end of the incubation period, the spheroids were loaded with the relevant dye/antibody for each cell health marker (spheroid count, spheroid size, DNA structure, mitochondrial mass, mitochondrial membrane potential, oxidative stress, glutathione content, and cellular ATP). The plates were then scanned using an automated fluorescent cellular imager, ArrayScan® (Thermo Scientific Cellomics).

MAO-A = biological target: T2, MAO-A (Homo sapiens, UniProt P21397); test: MAO-A inhibition assay; format: biochemical; details: 20 min pre-incubation; 10 μM = highest concentration tested; read-out: Enzymatic Assays IC50 MAO-A
T2 sequence (P21397 1-527): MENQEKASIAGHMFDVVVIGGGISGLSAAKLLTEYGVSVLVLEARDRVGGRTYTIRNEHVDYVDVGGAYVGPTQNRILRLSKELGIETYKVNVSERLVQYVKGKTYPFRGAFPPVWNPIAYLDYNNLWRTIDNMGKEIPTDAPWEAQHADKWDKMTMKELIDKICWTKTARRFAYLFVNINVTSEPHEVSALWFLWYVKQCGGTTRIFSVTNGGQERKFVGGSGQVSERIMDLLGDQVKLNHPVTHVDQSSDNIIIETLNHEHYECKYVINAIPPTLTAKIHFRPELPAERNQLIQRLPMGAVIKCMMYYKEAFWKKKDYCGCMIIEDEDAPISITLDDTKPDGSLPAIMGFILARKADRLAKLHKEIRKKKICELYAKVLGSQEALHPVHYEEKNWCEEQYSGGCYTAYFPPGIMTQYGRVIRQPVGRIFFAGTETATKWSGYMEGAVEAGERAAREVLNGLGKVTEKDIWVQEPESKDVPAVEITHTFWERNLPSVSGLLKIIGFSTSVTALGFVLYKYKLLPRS
Description: (§1) D. MAO-A and MAO-B inhibition assays: MAO assays included luminogenic MAO substrate, reaction buffers, Luciferin Detection, and a reconstitution buffer with esterase. The MAO reaction mixture used in the assay included microsome contained MAO-A (2 μg) or MAO-B (10 μg), 160 μM substrate for MAO-A or 16 μM substrate for MAO-B, MAO-A buffer (100 mM Hepes buffer, pH 7.5, 5% glycerol) or MAO-B buffer (100 mM Hepes, pH 7.5, 5% glycerol, 10% dimethyl sulfoxide) in a final volume of 30 μL. After 20 minutes of pre-incubation of the MAO-A or MAO-B enzyme with the test ALDH-2 inhibitor compound, the reaction was initiated by adding enzyme substrate and the […] reaction was allowed to proceed for 60 minutes. Reconstituted Luciferin Detection Reagent (30 μL) was then added is added to simultaneously stop the MAO reaction and convert the methyl ester derivative to luciferin and produce light. The amount of light produced is directly proportional to the activity of MAO. The mixtures were further incubated for 20 minutes and activity of the enzyme was determined using Perkin-Elmer Envision Reader.

recombinant human ALDH-2 = biological target: T3, recombinant human ALDH-2 (Homo sapiens, UniProt P05091); test: ALDH-2 inhibition assay; format: biochemical; details: 60 min pre-incubation; 10 μM = highest concentration tested; read-out: Enzymatic Assays IC50 ALDH2
T3 sequence (P05091 18-517): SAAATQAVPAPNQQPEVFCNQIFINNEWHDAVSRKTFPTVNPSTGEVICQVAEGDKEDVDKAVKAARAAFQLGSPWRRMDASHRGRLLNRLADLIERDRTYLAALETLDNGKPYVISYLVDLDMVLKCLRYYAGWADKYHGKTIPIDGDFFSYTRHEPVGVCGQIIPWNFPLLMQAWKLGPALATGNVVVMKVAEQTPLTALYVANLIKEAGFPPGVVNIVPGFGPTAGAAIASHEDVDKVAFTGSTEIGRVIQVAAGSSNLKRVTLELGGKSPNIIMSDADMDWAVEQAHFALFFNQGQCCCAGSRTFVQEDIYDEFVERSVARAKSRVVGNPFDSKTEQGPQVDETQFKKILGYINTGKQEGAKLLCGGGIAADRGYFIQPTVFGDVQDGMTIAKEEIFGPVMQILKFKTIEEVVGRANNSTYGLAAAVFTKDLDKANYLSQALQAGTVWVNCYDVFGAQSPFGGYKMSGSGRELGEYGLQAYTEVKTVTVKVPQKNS
Description: A. ALDH-2 inhibition assay: The ALDH-2 reaction mixture used in the assay contained 125 μM formaldehyde, 75 μM NAD+, 20 mM NaCl, 10 mM MgCl2, and 20 nM recombinant human ALDH-2 in 50 mM Hepes buffer, pH 7.5 in a final volume of 10 μL using 384-well Corning 3820 plates. After 60 min of pre-incubation of the test ALDH-2 inhibitor compound with ALDH-2, the reaction was started by adding NAD+ and formaldehyde and the assay reaction mixture was allowed to proceed for 60 minutes. Activity of the ALDH-2 enzyme was determined by monitoring NADH formation using Perkin-Elmer Envision Reader with excitation and emission wavelengths set at 340 and 460 nm, respectively.

MAO-B = biological target: T4, MAO-B (Homo sapiens, UniProt P27338); test: MAO-B inhibition assay; format: biochemical; details: 20 min pre-incubation; 10 μM = highest concentration tested; read-out: Enzymatic Assays IC50 MAO-B
T4 sequence (P27338 1-520): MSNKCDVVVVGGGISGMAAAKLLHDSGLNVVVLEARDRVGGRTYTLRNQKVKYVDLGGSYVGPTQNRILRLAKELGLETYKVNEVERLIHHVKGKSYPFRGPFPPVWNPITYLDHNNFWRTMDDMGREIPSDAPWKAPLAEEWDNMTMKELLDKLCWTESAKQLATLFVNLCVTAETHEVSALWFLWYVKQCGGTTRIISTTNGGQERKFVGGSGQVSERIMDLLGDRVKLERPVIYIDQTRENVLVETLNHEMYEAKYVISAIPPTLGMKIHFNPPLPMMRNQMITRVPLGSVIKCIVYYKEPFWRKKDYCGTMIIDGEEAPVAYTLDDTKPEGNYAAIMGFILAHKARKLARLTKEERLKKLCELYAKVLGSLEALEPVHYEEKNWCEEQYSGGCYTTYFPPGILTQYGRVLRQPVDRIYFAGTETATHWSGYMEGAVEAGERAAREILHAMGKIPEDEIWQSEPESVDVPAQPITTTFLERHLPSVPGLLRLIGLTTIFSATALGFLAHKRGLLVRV
Description: as §1

recombinant human ALDH-3 = biological target: T5, recombinant human ALDH-3 (Homo sapiens, UniProt P30838); test: ALDH-3 inhibition assay; format: biochemical; details: 60 min pre-incubation; 10 μM = highest concentration tested; read-out: Enzymatic Assays IC50 ALDH-3
T5 sequence (P30838 1-453): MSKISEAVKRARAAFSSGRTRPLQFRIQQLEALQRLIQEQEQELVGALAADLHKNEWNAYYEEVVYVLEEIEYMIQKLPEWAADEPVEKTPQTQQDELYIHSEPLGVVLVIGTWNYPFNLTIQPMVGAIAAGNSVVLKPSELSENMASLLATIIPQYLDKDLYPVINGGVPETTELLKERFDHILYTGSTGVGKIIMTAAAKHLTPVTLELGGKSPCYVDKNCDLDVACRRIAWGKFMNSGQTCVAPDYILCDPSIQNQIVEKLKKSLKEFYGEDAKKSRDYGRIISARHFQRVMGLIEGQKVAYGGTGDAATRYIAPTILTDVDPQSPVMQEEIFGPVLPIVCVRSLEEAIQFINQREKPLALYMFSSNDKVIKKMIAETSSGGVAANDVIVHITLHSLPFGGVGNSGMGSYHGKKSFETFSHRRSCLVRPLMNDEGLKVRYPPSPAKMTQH
Description: ALDH-3 inhibition assay: The ALDH-3 reaction mixture used in the assay contained 200 μM benzaldehyde, 2.5 mM NAD+, 20 mM NaCl, 10 mM MgCl2, and 10 nM recombinant human ALDH-3 in 50 mM Hepes buffer, pH 7.5 in a final volume of 10 μL using 384-well Corning 3820 plates. After 60 min of pre-incubation of the test ALDH-2 inhibitor compound with ALDH-3, the reaction was started by adding NAD+ and benzaldehyde and the assay reaction mixture was allowed to proceed for 60 minutes. Activity of the ALDH-3 enzyme was determined by monitoring NADH formation using Perkin-Elmer Envision Reader with excitation and emission wavelengths set at 340 and 460 nm, respectively.

| IC50 (recombinant human ALDH-1) [µM] | HepaRG 3D Spheroid MEC (HepaRG spheroids) | IC50 (MAO-A) [µM] | IC50 (recombinant human ALDH-2) [µM] | IC50 (MAO-B) [µM] | IC50 (recombinant human ALDH-3) [µM] | SMILES | hepatotoxicity in humans [1] |
| --- | --- | --- | --- | --- | --- | --- | --- |
|  |  |  |  |  |  | O=C(NCc1ccc(-c2cc[nH]c(=O)c2)cc1)c1c(Cl)cccc1Cl [2,6-dichloro-N-[4-(2-oxo-1,2-dihydro-pyridin-4-yl)-benzyl]-benzamide] | high levels of hepatotoxicity |
| > 10 | 53.9 µM | > 10 | 0.1 | > 10 |  | Cc1nccc(Cl)c1C(=O)NCc1ccc(-c2[nH]c(=O)ccc2F)cc1 [(1h), 4-Chloro-N-(4-(3-fluoro-6-oxo-1,6-dihydropyridin-2-yl)benzyl)-2-methylnicotinamide] |  |
| > 10 | 15.3 µM | > 10 | 0.004 | > 10 |  | O=C(NCc1ccc(-c2[nH]c(=O)ccc2F)nc1)c1c(Cl)cccc1Cl [(1i), 2,6-dichloro-N-((3′-fluoro-6′-oxo-1′,6′-dihydro-[2,2′-bipyridin]-5-yl)methyl)benzamide] |  |
| > 10 | 5.06 µM | > 10 | 0.007 | > 10 |  | O=C(NCc1ccc(-c2cccc(=O)[nH]2)nc1)c1c(Cl)cccc1Cl [(1j), 2,6-Dichloro-N-((6′-oxo-1′,6′-dihydro-[2,2′-bipyridin]-5-yl)methyl)benzamide] |  |
| > 10 |  | > 10 | 0.98 | > 10 | > 10 | Cc1nccc(Cl)c1C(=O)NCc1ccc(-c2cccc(=O)[nH]2)nc1 [(1m), 4-Chloro-2-methyl-N-((6′-oxo-1′,6′-dihydro-[2,2′-bipyridin]-5-yl)methyl)nicotinamide] |  |
| > 10 | 7.48 µM | > 10 | 0.031 | > 10 |  | Cc1cccc(Cl)c1C(=O)NCc1cnc(-c2cccc(=O)[nH]2)nc1 [(1n), 2-Chloro-6-methyl-N-((2-(6-oxo-1,6-dihydropyridin-2-yl)pyrimidin-5-yl)methyl)benzamide] |  |
| > 10 | No Effect | > 10 | 0.027 | > 10 |  | O=C(NCc1ccc(-c2[nH]c(=O)ccc2F)cc1)c1c(Cl)cccc1Cl [Compound (1d), 2,6-dichloro-N-(4-(3-fluoro-6-oxo-1,6-dihydropyridin-2-yl)benzyl)benzamide] |  |
| > 10 | 50.4 µM | > 10 | 0.009 | > 10 |  | Cc1cccc(Cl)c1C(=O)NCc1ccc(-c2[nH]c(=O)ccc2F)cc1 [Compound (1e), 2-Chloro-N-(4-(3-fluoro-6-oxo-1,6-dihydropyridin-2-yl)benzyl)-6-methylbenzamide] |  |
| > 10 |  | > 10 | 0.329 | > 10 | > 10 | O=C(NCc1ccc(-c2[nH]c(=O)ccc2F)cc1)c1ccccc1Cl [Compound (1f), 2-Chloro-N-(4-(3-fluoro-6-oxo-1,6-dihydropyridin-2-yl)benzyl)benzamide] |  |
